In patent US12186467B2, “Cleaning of biological fluid” (GAMBRO LUNDIA AB, priority 2012, dated 2025):
Blank lines part the entries; values can stand above or below the molecule they belong to.

Key:
[1] = biological target: T1, bovine serum albumin (BSA) (Bos taurus, UniProt P02769); assay: Removal of p-cresol from BSA by repeated addition of water and centrifugation; assay type: binding; conditions: pH 8
T1 construct: purchased Sigma-Aldrich
Experimental: The influence of water addition on the binding affinity of p-cresol to bovine serum albumin was investigated in this example, performed at room temperature. 1 ml of a solution comprising 0.02 mg/ml p-cresol and 40 mg/ml bovine serum albumin (BSA) was centrifuged (Visaspin®) for 20 minutes. 0.5 ml of the solution was removed and analysed.
0.5 ml water (Milli-Q quality) was added to the remaining 0.5 ml solution (p-cresol and BSA) and centrifuged (in Vivaspin®) for another 20 minutes before another 0.5 ml was removed for the analysis.
The previous experiment was repeated at elevated temperature. A 1 ml solution containing 0.02 mg/ml p-cresol and 40 mg/ml bovine serum albumin (BSA), pH 8, was centrifuged (Vivaspin®) at 50° C. for 20 minutes until 0.5 ml was removed and analysed. Then 0.5 ml water (Milli-Q) was added to the remaining 0.5 ml solution comprising p-cresol and BSA, centrifuged for 20 minutes until 0.5 ml was removed for the analysis.

[2] = Precipitation observed in displacer/BSA/p-cresol solutions; assay type: physicochemical
Experimental: The mixed solutions were centrifuged to remove protein at 5700 rpm for 70 minutes at room temperature before analysis. The pH was adjusted to 7 (physiological pH) by addition of NaOH to the samples. The samples were injected into a HPLC. The measurement of p-cresol by HPLC analysis was performed at room temperature.
The influence of the pH value on the binding affinity of the p-cresol and the binding competitors to the bovine serum albumin (BSA) was investigated. […] The pH was adjusted by adding sodium hydroxide (NaOH) or hydrochloric acid (HCl). The tests were performed with the following displacer substances: sodium salicylate, sodium octanoate and sodium acetylsalicylate. […] At pH 5 the albumin exists in the N form. The results are present in Table 4

T1 sequence (P02769 25-607): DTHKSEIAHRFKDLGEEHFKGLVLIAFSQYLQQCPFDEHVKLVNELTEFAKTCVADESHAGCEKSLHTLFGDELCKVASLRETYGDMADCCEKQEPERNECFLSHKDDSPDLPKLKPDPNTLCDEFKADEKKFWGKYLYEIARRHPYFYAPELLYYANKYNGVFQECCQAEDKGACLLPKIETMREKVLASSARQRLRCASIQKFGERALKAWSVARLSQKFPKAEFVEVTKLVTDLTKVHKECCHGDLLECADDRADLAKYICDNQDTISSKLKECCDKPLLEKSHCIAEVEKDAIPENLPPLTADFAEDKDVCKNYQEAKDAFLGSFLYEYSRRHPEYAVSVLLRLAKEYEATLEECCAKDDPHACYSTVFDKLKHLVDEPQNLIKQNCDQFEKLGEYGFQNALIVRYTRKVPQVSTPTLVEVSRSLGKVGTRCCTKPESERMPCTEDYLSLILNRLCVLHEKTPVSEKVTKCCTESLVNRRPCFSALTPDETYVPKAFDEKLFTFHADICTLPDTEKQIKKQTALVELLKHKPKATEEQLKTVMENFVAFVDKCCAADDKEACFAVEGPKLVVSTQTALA

p-cresol considered unbound ([1]; after addition of 5 ml water, 50° C.): About 100% | added p-cresol removed from the binding sites on BSA ([1]; water addition repeated 16 times, room temperature): ~100% | calculated amount of p-cresol removed ([1]; water addition repeated 16 times, room temperature, 0.02 mg p-cresol added): 0.01989 mg | measured amount of p-cresol ([1]; water addition repeated 20 times, 50° C., more than the added amount): 0.027 mg
Compound: Cc1ccc(O)cc1 [p-cresol]

precipitation ([2]; sodium octanoate 100 mg/ml and 200 mg/ml, pH 6): Precipitation occurred
Compound: CCCCCCCC(=O)[O-].[Na+] [sodium octanoate]
precipitation ([2]; sodium octanoate with BSA and p-cresol, pH 5): precipitation of the solution was observed

Compound: O=C([O-])c1ccccc1O.[Na+] [sodium salicylate]
precipitation ([2]; sodium salicylate with BSA and p-cresol, pH 4): precipitation occurred
